What was measured:
glutathione reductase = assay: Measurement of glutathione reductase activity in cultured rat lens; format: cell-based, SD rats; conditions: 72 hours, 37° C.
Protocol: The test animals were 6 to 8 week old male SD rats (supplier: Nippon SLC). The animals were sacrificed by suffocation by inhalation of carbon dioxide. Both eyeballs of each test animal were then excised. An incision was made in the sclera on the back of the eyeballs, and then the vitreous body and iris-ciliary body were removed, followed by removal of the lens.
Each lens obtained in this manner was cultured by immersing it in 3 ml of the culture solution described below in a 6-well tissue culture plate (FALCON). Culturing was performed for 72 hours in a CO2 incubator maintained at 37° C. and 100% humidity in the presence of 5% CO2 (in air).
Medium 199 (Gibco) containing penicillin (20 units/ml) and streptomycin (20 μg/ml) was used as the control culture solution.
The test culture solution contained the test compound added to the above-mentioned culture solution. The cultured lenses were placed in frozen storage until the time of the test.
After homogenising each frozen rat lens in 2 ml of distilled water, the resulting homogenate was separated by centrifugation (10,000 g, 20 minutes) after which the resulting supernatant was used as the enzyme sample.
400 μl of enzyme sample were added to 0.6 ml of phosphate buffer containing 1 mM oxidized glutathione (GSSG) and 100 μM NADPH. After the mixture had reacted at 25° C. for 6 minutes, the absorbance of the reaction mixture (at 340 nm: i.e. OD340nm) was measured. The difference (ΔOD340nm) between the OD340nm value before reaction and the OD340nm value after completion of the reaction was used as an indicator of glutathione reductase activity.

newborn rats = conditions: cited from earlier work

CS(=O)(=O)NC(=O)CCCCC1CCSS1 (centres unmarked) [Example 2, N-[5-(1,2-Dithiolan-3-yl)pentanoyl]methanesulfonamide]
ΔOD340 nm /min/g protein (indicator of glutathione reductase activity) (glutathione reductase; 10 μM in lens culture solution): 3.24 ± 0.10 ΔOD340 nm /min/g protein | ΔOD340 nm /min/g protein (indicator of glutathione reductase activity) (glutathione reductase; 30 μM in lens culture solution): 3.20 ± 0.09 ΔOD340 nm /min/g protein | ΔOD340 nm /min/g protein (indicator of glutathione reductase activity) (glutathione reductase; 100 μM in lens culture solution, p < 0.05): 3.59 ± 0.05 ΔOD340 nm /min/g protein | ΔOD340 nm /min/g protein (indicator of glutathione reductase activity) (glutathione reductase; 300 μM in lens culture solution, p < 0.05): 3.70 ± 0.08 ΔOD340 nm /min/g protein | ΔOD340 nm /min/g protein (indicator of glutathione reductase activity) (glutathione reductase; 1000 μM in lens culture solution, p < 0.05): 4.16 ± 0.18 ΔOD340 nm /min/g protein

O=C(O)CCCCC1CCSS1 (centres unmarked) [lipoic acid]
activity of glutathione reductase (newborn rats; lipoic acid in addition to BSO): does not increase | cataract formation (newborn rats; lipoic acid together with BSO): suppressed | total glutathione (oxidized and reduced glutathione) level (newborn rats; lipoic acid together with BSO): decrease is prevented
